Laboratory results as given in patent publication US20250255890A1, “PSILOCYBIN CULTIVATION, EXTRACTION, AND THERAPEUTIC USE” (Golden Fleece Research Group Inc., priority 2024, published 2025).

Test system: patients with certain neurological and mental disorders
Assay: Therapeutic effects of psilocybin in selected patients (patient experiences)
Format: in vivo, human
Details: identified group of selected patients after intaking the psilocybin products
Excerpt: In one aspect, psilocybin is effective in treating and reducing ADHD, anxiety, ADD and the symptoms of Tourette Syndrome. […] Some patients suffered significant side effects when taking prescription drugs for the respective indications.

With `CN(C)CCc1c[nH]c2cccc(OP(=O)(O)O)c12` [Psilocybin, psilocybin] the side effects was “minimal side effects”.
